From PMC8119466, “A screen of FDA-approved drugs identifies inhibitors of protein tyrosine phosphatase 4A3 (PTP4A3 or PRL-3)” (Scientific Reports, 2021)
Structures can show the parent of a compound that is named as a salt.

How the values were obtained:
Type in all cases: biochemical
Conditions in all cases: FDA-approved drug screen; compared to DMSO
recombinant PRL-2 = target: T1, recombinant PRL-2 (Homo sapiens, UniProt Q12974); assay: In vitro phosphatase assay (DiFMUP hydrolysis), PRL-2;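 note: PRL-2 activity read as DiFMUP hydrolysis after 20 min at room temperature with drug, enzyme first pre-reduced at 4 °C for 20 min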
T1 construct: 6xHis (N, cleaved yes); made in house; host or cells: E. coli One Shot BL21 Star
T1 sequence (Q12974 1-167): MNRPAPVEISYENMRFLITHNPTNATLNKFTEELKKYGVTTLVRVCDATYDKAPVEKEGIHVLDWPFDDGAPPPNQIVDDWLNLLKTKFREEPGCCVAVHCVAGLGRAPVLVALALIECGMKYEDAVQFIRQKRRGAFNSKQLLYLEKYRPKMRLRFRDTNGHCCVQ

recombinant PRL-1 = target: T2, recombinant PRL-1 (Homo sapiens, UniProt Q93096); assay: In vitro phosphatase assay (DiFMUP hydrolysis), PRL-1; note: test concentration or dose not given here
T2 construct: 6xHis (N, cleaved yes); made in house; host or cells: E. coli One Shot BL21 Star
T2 sequence (Q93096 1-173): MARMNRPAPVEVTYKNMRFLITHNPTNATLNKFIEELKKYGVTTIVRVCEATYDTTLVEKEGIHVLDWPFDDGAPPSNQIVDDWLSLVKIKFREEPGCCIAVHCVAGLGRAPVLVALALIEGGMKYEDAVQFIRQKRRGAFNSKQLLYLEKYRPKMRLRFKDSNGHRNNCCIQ

recombinant PRL-3 = target: T3, recombinant PRL-3 (Homo sapiens, UniProt O75365); assay: In vitro phosphatase assay (DiFMUP hydrolysis), PRL-3; note: test concentration or dose not given here
T3 construct: 6xHis (N, cleaved yes); made in house; host or cells: E. coli One Shot BL21 Star
T3 sequence (O75365 whole entry): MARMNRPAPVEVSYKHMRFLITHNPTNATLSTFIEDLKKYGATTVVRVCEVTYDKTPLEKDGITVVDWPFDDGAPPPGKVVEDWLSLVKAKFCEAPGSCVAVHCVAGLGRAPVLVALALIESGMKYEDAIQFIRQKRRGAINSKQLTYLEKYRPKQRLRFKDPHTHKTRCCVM

SMILES	% Phosphatase Activity (compared to DMSO) PRL-2 (recombinant PRL-2) [%]	% Phosphatase Activity (compared to DMSO) PRL-1 (recombinant PRL-1) [%]	% Phosphatase Activity (compared to DMSO) PRL-3 (recombinant PRL-3) [%]
Nc1nc(CC(=O)Nc2ccc(CCNC[C@H](O)c3ccccc3)cc2)cs1 [Mirabegron]	113	104	88
CN1CCN2c3ncccc3Cc3ccccc3C2C1 (stereo not drawn) [Mirtazapine]	114	92	98
CO[C@@]12[C@H](COC(N)=O)C3=C(C(=O)C(C)=C(N)C3=O)N1C[C@@H]1N[C@@H]12 [Mitomycin C]	54	68	64
Clc1ccc(C(c2ccccc2Cl)C(Cl)Cl)cc1 (stereo not drawn) [Mitotane]	93	98	103
O=C1c2c(O)ccc(O)c2C(=O)c2c(NCCNCCO)ccc(NCCNCCO)c21 [Mitoxantrone HCl]	76	74	61
NC(=O)c1ncn([C@@H]2O[C@H](CO)[C@@H](O)[C@H]2O)c1O [Mizoribine]	78	93	85
Nc1ccccc1NC(=O)c1ccc(CNc2nccc(-c3cccnc3)n2)cc1 [Mocetinostat (MGCD0103)]	108	98	84
NC(=O)C[S+]([O-])C(c1ccccc1)c1ccccc1 (stereo not drawn) [Modafinil]	92	91	82
CCOC(=O)[C@H](CCc1ccccc1)N[C@@H](C)C(=O)N1Cc2cc(OC)c(OC)cc2C[C@H]1C(=O)O [Moexipril HCl]	98	103	83
CCOC(=O)CC(=O)N1CCSC1COc1ccccc1OC (stereo not drawn) [Moguisteine]	98	104	87
O=c1c(-n2ccnn2)c[nH]n1-c1cc(N2CCOCC2)ncn1 [Molidustat (BAY 85-3934)]	74	90	84
CCOC(=O)[N-]c1cn(N2CCOCC2)n[o+]1 [Molsidomine]	110	99	79
C[C@@H]1C[C@H]2[C@@H]3CCC4=CC(=O)C=C[C@]4(C)[C@@]3(Cl)[C@@H](O)C[C@]2(C)[C@@]1(OC(=O)c1ccco1)C(=O)CCl [Mometasone furoate]	87	85	77
Oc1ccc(OCc2ccccc2)cc1 [Monobenzone]	112	105	72
CC(C)(O)c1ccccc1CC[C@@H](SCC1(CC(=O)O)CC1)c1cccc(/C=C/c2ccc3ccc(Cl)cc3n2)c1 [Montelukast Sodium]	161	172	182
CCOc1cc(N)c(Cl)cc1C(=O)NCC1CN(Cc2ccc(F)cc2)CCO1 (stereo not drawn) [Mosapride Citrate]	101	88	57
CCCN(CCC)C(=O)C1=Cc2ccc(-c3ccc(C(=O)N4CCCC4)cc3)cc2N=C(N)C1 [Motolimod (VTX-2337)]	90	103	106
CO[C@@]1(NC(=O)C(C(=O)O)c2ccc(O)cc2)C(=O)N2C(C(=O)O)=C(CSc3nnnn3C)CO[C@@H]21 (stereo partly drawn) [Moxalactam Disodium]	97	88	89
COc1c(N2C[C@@H]3CCCN[C@@H]3C2)c(F)cc2c(=O)c(C(=O)O)cn(C3CC3)c12 [Moxifloxacin HCl]	594	562	417
COc1nc(C)nc(Cl)c1N=C1NCCN1 [Moxonidine]	109	105	80
